{"source": "patent US11304965B2", "about": "“Flavonoid compositions and related methods” (INSTITUTO DE INVESTIGACIONES CIENTIFICAS Y SERVICIOS DE …, priority 2017, dated 2022)", "assay_type_in_all_cases": "cell-based", "key": {"human AT1 receptor": {"target": "T1, human AT1 receptor (Homo sapiens, UniProt P30556)", "T1 construct": "pcDNA3.1+ plasmid DNA into which had been inserted the coding region for human AT1, AT2, or ETB receptor; expressed in transfected cells; host or cells: CHO-AEQ (Chinese hamster ovary cells stably expressing aequorin), transient transfection with Fugene HD", "T1 sequence (P30556 1-359)": "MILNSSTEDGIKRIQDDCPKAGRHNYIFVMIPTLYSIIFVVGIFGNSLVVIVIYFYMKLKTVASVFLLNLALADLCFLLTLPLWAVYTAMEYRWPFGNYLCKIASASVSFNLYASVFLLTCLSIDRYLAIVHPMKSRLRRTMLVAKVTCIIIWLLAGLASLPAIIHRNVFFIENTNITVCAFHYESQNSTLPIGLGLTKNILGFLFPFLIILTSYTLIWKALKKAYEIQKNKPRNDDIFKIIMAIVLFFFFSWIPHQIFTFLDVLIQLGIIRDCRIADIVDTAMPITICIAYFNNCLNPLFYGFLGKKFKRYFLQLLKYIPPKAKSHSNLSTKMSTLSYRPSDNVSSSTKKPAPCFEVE", "assay": "Aequorin bioluminescence intracellular calcium assay, CHO-AEQ-AT1 cells (inhibition of angiotensin II)", "details": "CHO-AEQ cells expressing AT1; 100 nM angiotensin II; samples 100 μg/ml; compared with losartan; FIG. 21", "experimental": "(§1) To investigate the vasculoprotective, neuroprotective, and/or antihypertensive properties of Cecropia extracts, Chinese hamster ovary cells that had been stably transfected with aequorin (CHO-AEQ cells) were transiently transfected with various G-protein coupled receptors.\n(§2) More particularly, CHO-AEQ cells were cultured in Dulbecco's Modified Eagle's Medium (DMEM) containing 10% fetal bovine serum as previously described (Vanderheyden et al., 126 Br J Pharmacol 1057-1065 (1999)). At 75% confluency, these cells were transiently transfected with pcDNA3.1+ plasmid DNA into which had been inserted the coding region for human AT1, AT2, or ETB receptor. The transient transfection was performed with Fugene HD® following the manufacturers' instructions (2 μg DNA to 7 μl Fugene HD® in Opti-MEM® medium. After transfection, the cells were cultured for an additional day, after which they were harvested and loaded with coelenterazine-h.\n(§3) Intracellular calcium can be detected based on the interaction of calcium ions with the calcium binding bioluminescent complex aequorin. Upon calcium binding, aequorin oxidizes coelenterazine-h into coelenteramide with production of CO2 and emission of light (466 nm) (Le Poul et al., 7 J Biomol Screen 57-65 (2002). The CHO-AEQ cells that had been transiently transfected with human AT1, human AT2 or human ETB receptors were used in a bioluminescence assay to evaluate whether—and to what extent—material isolated from Cecropia obtusifolia could perturb G-protein coupled receptor(s).\n(§4) Confluent CHO-AEQ cells that were grown and transfected in 75 cm^2 culture flasks were harvested by a brief treatment with a trypsin/EDTA solution, centrifuged, and resuspended in DMEM-F12 cell culture medium containing 0.1% BSA and denoted as assay buffer, at a cell density of 2.5×10^6 cells/ml. Subsequently, coelenterazine-h was added to the cell suspension to a final concentration of 5 μM. Cells were then incubated between 14 h and 18 h at room temperature in the dark under gentle shaking. After this loading step, 15 ml of assay buffer was added to the cells and then centrifuged for 7 min at 1100 rpm in a swinging bucket centrifuge. The resulting cell pellets were gently resuspended in assay buffer containing 1 μM coelenterazine-h at a cell density of 5×10^5 cells/ml. After a further incubation of 1.5 h at room temperature, the cell suspension was distributed at 100 μl/well in white Cellstar 96-well plates.\nTo assess the activity of the compounds derived from Cecropia obtusifolia extracts, lyophilized crude extract (and compounds that had been identified in the extract) were dissolved in DMSO at 1 mg/ml, and then further diluted in assay buffer to 100 μg/ml (final concentration) (Caballero-George et al., 4 Curr. Trends Biotechnol Pharm 881-899 (2010)). A […] was then added to each well containing the transiently transfected cells. […]\n(§5) Measurements were initiated by injecting 50 μl solution/well, and the bioluminescence was recorded every 200 ms for 120 cycles. To account for slight variations in cell number, a final concentration of 10 μM ATP was added by a second injector to the cells (50 μl/well) and the resulting response was measured.\n(§6) The effects were quantified by calculation of the area under the curves by integration of the obtained transient responses using GraphPad Prism 5™. The activation of the AT1, AT2, or ETB receptors was expressed as a fractional response. […]"}, "human AT2 receptor": {"target": "T2, human AT2 receptor (Homo sapiens, UniProt P50052)", "T2 construct": "pcDNA3.1+ plasmid DNA into which had been inserted the coding region for human AT1, AT2, or ETB receptor; expressed in transfected cells; host or cells: CHO-AEQ (Chinese hamster ovary cells stably expressing aequorin), transient transfection with Fugene HD", "T2 sequence (P50052 1-363)": "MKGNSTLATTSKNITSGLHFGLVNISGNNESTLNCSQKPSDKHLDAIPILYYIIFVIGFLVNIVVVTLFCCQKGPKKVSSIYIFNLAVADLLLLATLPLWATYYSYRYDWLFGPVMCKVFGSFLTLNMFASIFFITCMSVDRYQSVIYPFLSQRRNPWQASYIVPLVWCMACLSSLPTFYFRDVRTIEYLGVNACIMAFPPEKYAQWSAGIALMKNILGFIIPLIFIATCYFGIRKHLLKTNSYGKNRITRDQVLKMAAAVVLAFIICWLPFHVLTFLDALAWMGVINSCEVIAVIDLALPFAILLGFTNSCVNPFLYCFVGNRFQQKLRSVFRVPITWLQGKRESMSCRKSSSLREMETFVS", "assay": "Aequorin bioluminescence intracellular calcium assay, CHO-AEQ-AT2 cells", "details": "CHO-AEQ cells expressing AT2; samples 100 μg/ml; compared with angiotensin II; FIG. 19", "experimental": "as §1, §2, §3, §4\nTo assess the activity of the compounds derived from Cecropia obtusifolia extracts, lyophilized crude extract (and compounds that had been identified in the extract) were dissolved in DMSO at 1 mg/ml, and then further diluted in assay buffer to 100 μg/ml (final concentration) (Caballero-George et al., 4 Curr. Trends Biotechnol Pharm 881-899 (2010)). A […] was then added to each well containing the transiently transfected cells. For comparison, control peptides were diluted in assay buffer to a final concentration of 0.1 μM angiotensin II or 10 nM endothelin-1. These control peptides are known to cause a transient rise in cytosolic calcium. The agonist solutions were loaded in the cell injector of a Victor spectrophotometer, and a 96-well plate was inserted.\nas §5\nas §6, with “response. This is obtained by dividing the agonist response by the sum of the agonist and ATP response for each well (i.e., agonist response/(ATP+agonist response)).” for “response.”"}, "human ETB receptor": {"target": "T3, human ETB receptor (Homo sapiens, UniProt P24530)", "T3 construct": "pcDNA3.1+ plasmid DNA into which had been inserted the coding region for human AT1, AT2, or ETB receptor; expressed in transfected cells; host or cells: CHO-AEQ (Chinese hamster ovary cells stably expressing aequorin), transient transfection with Fugene HD", "T3 sequence (P24530 27-442)": "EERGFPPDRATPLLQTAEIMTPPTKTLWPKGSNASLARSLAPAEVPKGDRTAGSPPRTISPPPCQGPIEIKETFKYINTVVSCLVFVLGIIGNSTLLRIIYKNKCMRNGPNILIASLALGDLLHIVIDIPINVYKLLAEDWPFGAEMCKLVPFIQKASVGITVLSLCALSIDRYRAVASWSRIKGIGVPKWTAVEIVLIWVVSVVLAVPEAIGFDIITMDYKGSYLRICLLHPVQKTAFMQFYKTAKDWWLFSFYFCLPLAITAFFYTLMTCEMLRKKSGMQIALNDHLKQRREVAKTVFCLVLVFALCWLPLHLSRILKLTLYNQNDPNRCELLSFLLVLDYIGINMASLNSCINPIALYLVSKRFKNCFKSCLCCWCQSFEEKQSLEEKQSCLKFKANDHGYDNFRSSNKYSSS", "assay": "Aequorin bioluminescence intracellular calcium assay, CHO-AEQ-ETB cells", "details": "CHO-AEQ cells expressing ETB; samples 100 μg/ml; compared with 100 nM endothelin 1; FIG. 20", "experimental": "as §1\nMore particularly, CHO-AEQ cells were cultured in Dulbecco's Modified Eagle's Medium (DMEM) containing 10% fetal bovine serum as previously described (Vanderheyden et al., 126 Br J Pharmacol 1057-1065 (1999)). At 75% confluency, these cells were transiently transfected with pcDNA3.1+ plasmid DNA into which had been inserted the coding region for human AT1, AT2, or ETB receptor. […]\nIntracellular calcium can be detected based on the interaction of calcium ions with the calcium binding bioluminescent complex aequorin. […]\nas §5, §6"}}}
{"molecule": "O=C(/C=C/c1ccc(O)c(O)c1)O[C@@H]1C[C@](O)(C(=O)O)C[C@@H](O)[C@H]1O", "note": "[Compound P2, chlorogenic acid]", "values": [{"measurement": "inhibition of the agonistic effect of angiotensin II on the AT1 receptor", "setting": "human AT1 receptor", "value": "less than half of the effect of Fraction 3-4"}, {"measurement": "activation of the AT2 receptor (cytoplasmic calcium release)", "setting": "human AT2 receptor", "value": "approximately half of the activity of the extract"}]}
{"molecule": "O=c1cc(-c2ccc(O)c(O)c2)oc2cc(O)c(C3OC(CO)C(O)C(O)C3OC3OCC(O)C(O)C3O)c(O)c12", "note": "(stereo not drawn) [Compound P4, isoorientin-2″-O-xyloside]", "values": [{"measurement": "inhibition of the agonistic effect of angiotensin II on the AT1 receptor", "setting": "human AT1 receptor", "value": "less than half of the effect of Fraction 3-4"}, {"measurement": "activation of the AT2 receptor (cytoplasmic calcium release)", "setting": "human AT2 receptor", "value": "approximately half of the activity of the extract"}]}
{"molecule": "O=c1cc(-c2ccc(O)cc2)oc2cc(O)c(C3OC(CO)C(O)C(O)C3OC3OC(CO)C(O)C(O)C3O)c(O)c12", "note": "(stereo not drawn) [Compound P7, isovitexin-2″-O-glucoside]", "values": [{"measurement": "inhibition of the agonistic effect of angiotensin II on the AT1 receptor", "setting": "human AT1 receptor", "value": "less than half of the effect of Fraction 3-4"}, {"measurement": "activation of the AT2 receptor (cytoplasmic calcium release)", "setting": "human AT2 receptor", "value": "approximately half of the activity of the extract"}]}
{"molecule": "O=c1cc(-c2ccc(O)cc2)oc2cc(O)c(C3OC(CO)C(O)C(O)C3OC3OCC(O)C(O)C3O)c(O)c12", "note": "(stereo not drawn) [Compound P8, isovitexin-2″-O-xyloside]", "values": [{"measurement": "inhibition of the agonistic effect of angiotensin II on the AT1 receptor", "setting": "human AT1 receptor", "value": "less than half of the effect of Fraction 3-4"}, {"measurement": "activation of the AT2 receptor (cytoplasmic calcium release)", "setting": "human AT2 receptor", "value": "approximately half of the activity of the extract"}]}
{"molecule": "CC1OC(OC2C(c3c(O)cc4oc(-c5ccc(O)cc5)cc(=O)c4c3O)OC(CO)C(O)C2O)C(O)C(O)C1O", "note": "(stereo not drawn) [Compound P9, isovitexin-2″-O-rhamnoside]", "values": [{"measurement": "inhibition of the agonistic effect of angiotensin II on the AT1 receptor", "setting": "human AT1 receptor", "value": "less than half of the effect of Fraction 3-4"}, {"measurement": "activation of the AT2 receptor (cytoplasmic calcium release)", "setting": "human AT2 receptor", "value": "approximately half of the activity of the extract"}]}
{"molecule": "isovitexin-O-xyloside [Compound P6]", "values": [{"measurement": "cytoplasmic calcium release after binding to the ETB receptors", "setting": "human ETB receptor", "value": "the most active sample tested"}, {"measurement": "activation of the AT2 receptor (cytoplasmic calcium release)", "setting": "human AT2 receptor", "value": "approximately half of the activity of the extract"}]}
